From patent publication US5332731A, “Cephalosporin derivatives” (Meiji Seika Kaisha, Ltd., priority 1989, dated 1994)
Values after ≈ are worked out from the molar mass of the structure shown.

Experiments:
Experiment in all cases: antibacterial activity, MIC by standard serial dilution method
Format in all cases: cell-based
Escherichia coli GN206 = tested on: Escherichia coli GN206
Description: (§1) Antibacterial activity of Compounds Nos. 1, 3, 5, 7, 9, 11, 13, 15, 17, 19, 21, 23, 25, 27, 29, 31, 33, 35 and 37 indentified hereinbefore which are the particular examples of the new cephalosporin derivative of general formula (I) according to this invention and which are in the form of the free carboxylic acid was estimated by determining the minimum inhibitory concentrations (MIC., μg/ml) of these compounds against a variety of bacteria according to a standard serial dilution method.

[1] = tested on: Serratia marcescens No. 1
Description: as §1

[2] = tested on: Marganella morganii 1510/S-1
Description: as §1

[3] = tested on: Klebsiella pneumoniae GN69
Description: as §1

Proteus vulgaris GN76 = tested on: Proteus vulgaris GN76
Description: as §1

[4] = tested on: Citrobacter freundii GN346/16
Description: as §1

[5] = tested on: Klebsiella pneumoniae PCI602
Description: as §1

[6] = tested on: Citrobacter freundii GN346
Description: as §1

[7] = tested on: Pseudomonas aeruginosa GN10362
Description: as §1

[8] = tested on: Escherichia coli NIHJ JC-2; details: NIHJJC2
Description: as §1

[9] = tested on: Proteus vulgaris GN76/C-1
Description: as §1

Escherichia coli 255 = tested on: Escherichia coli 255
Description: as §1

Escherichia coli 255/S-1 = details: 255/S1
Description: as §1

[10] = tested on: Enterobacter cloacae GN7471
Description: as §1

Marganella morganii 1510 = tested on: Marganella morganii 1510
Description: as §1

[11] = tested on: Escherichia coli W3630 RGN823; details: W3630RGN823
Description: as §1

[12] = tested on: Staphylococcus epidermidis ATCC14990
Description: as §1

[13] = tested on: Enterobacter hirae ATCC8043
Description: as §1

[14] = tested on: Staphylococcus aureus 209P JC-1
Description: as §1

[15] = tested on: Enterobacter cloacae G-0008; details: G0008
Description: as §1

[16] = tested on: Entrobacter faecalis W-73
Description: as §1

[17] = tested on: Serratia marcescens GN10857
Description: as §1

Compound `Nc1nc(/C(=N/O)C(=O)NC2C(=O)N3C(C(=O)O)=C(SCC4CCCO4)CS[C@H]23)cs1` (some centres unmarked) [Compound No. 11, 7-[(Z)-2-(2-aminothiazol-4-yl)-2-hydroxyiminoacetamido]-3-tetrahydrofurfurylthio-3-cephem-4-carboxylic acid] has an MIC (Escherichia coli GN206) of 12.5 µg/mL (≈ 25.7 µM), an MIC [1] of 1.56 µg/mL (≈ 3.21 µM) and an MIC [2] of 0.39 µg/mL (≈ 0.803 µM). The MIC [3] was 0.78 µg/mL (≈ 1.61 µM), the MIC (Proteus vulgaris GN76) was 0.78 µg/mL (≈ 1.61 µM) and the MIC [4] was 6.25 µg/mL (≈ 12.9 µM). The MIC [5] was 0.78 µg/mL (≈ 1.61 µM), the MIC [6] was over 100 µg/mL and the MIC [7] was over 100 µg/mL. The MIC [8] was 1.56 µg/mL (≈ 3.21 µM), the MIC [9] was 6.75 µg/mL (≈ 13.9 µM) and the MIC (Escherichia coli 255) was 50 µg/mL (≈ 103 µM). It also gave an MIC (Escherichia coli 255/S-1) of 0.78 µg/mL (≈ 1.61 µM), an MIC [10] of 50 µg/mL (≈ 103 µM) and an MIC (Marganella morganii 1510) of 50 µg/mL (≈ 103 µM). The MIC [11] was 1.56 µg/mL (≈ 3.21 µM), the MIC [12] was 0.2 µg/mL (≈ 0.412 µM) and the MIC [13] was 6.25 µg/mL (≈ 12.9 µM). It also gave an MIC [14] of 0.2 µg/mL (≈ 0.412 µM), an MIC [15] of 1.56 µg/mL (≈ 3.21 µM) and an MIC [16] of 6.25 µg/mL (≈ 12.9 µM). For the same compound, the MIC [17] was over 100 µg/mL.

`Nc1nc(/C(=N/O)C(=O)NC2C(=O)N3C(C(=O)O)=C(SC4CCOC4)CS[C@H]23)cs1` (some centres unmarked) [Compound No. 13, 7-[(Z)-2-(2-aminothiazol-4-yl)-2-hydroxyiminoacetamido]-3-(tetrahydrofuran-3-yl)thio-3-cephem-4-carboxylic acid] showed an MIC (Escherichia coli GN206) of 12.5 µg/mL (≈ 26.5 µM), an MIC [1] of 3.13 µg/mL (≈ 6.64 µM) and an MIC [2] of 0.2 µg/mL (≈ 0.424 µM). The MIC [3] was 0.39 µg/mL (≈ 0.827 µM), the MIC (Proteus vulgaris GN76) was 1.56 µg/mL (≈ 3.31 µM) and the MIC [4] was 3.13 µg/mL (≈ 6.64 µM). The MIC [5] was 0.2 µg/mL (≈ 0.424 µM), the MIC [6] was over 100 µg/mL and the MIC [7] was over 100 µg/mL. It also gave an MIC [8] of 0.39 µg/mL (≈ 0.827 µM), an MIC [9] of 6.25 µg/mL (≈ 13.3 µM) and an MIC (Escherichia coli 255) of 50 µg/mL (≈ 106 µM). The MIC (Escherichia coli 255/S-1) was 0.39 µg/mL (≈ 0.827 µM), the MIC [10] was 100 µg/mL (≈ 212 µM) and the MIC (Marganella morganii 1510) was 12.5 µg/mL (≈ 26.5 µM). It also gave an MIC [11] of 1.56 µg/mL (≈ 3.31 µM), an MIC [12] of 0.2 µg/mL (≈ 0.424 µM) and an MIC [13] of 3.13 µg/mL (≈ 6.64 µM). It also gave an MIC [14] of 0.2 µg/mL (≈ 0.424 µM), an MIC [15] of 6.25 µg/mL (≈ 13.3 µM) and an MIC [16] of 12.5 µg/mL (≈ 26.5 µM). The MIC [17] was over 100 µg/mL.

In the case of `Nc1nc(/C(=N/O)C(=O)NC2C(=O)N3C(C(=O)O)=C(SC4CCOCC4)CS[C@H]23)cs1` (some centres unmarked) [Compound No. 15, 7-[(Z)-2-(2-aminothiazol-4-yl) -2-hydroxyiminoacetamido]-3-(tetrahydropyran-4-yl)thio-3-cephem-4-carboxylic acid], the MIC (Escherichia coli GN206) is reported as 12.5 µg/mL (≈ 25.7 µM), the MIC [1] is reported as 6.25 µg/mL (≈ 12.9 µM) and the MIC [2] is reported as 0.2 µg/mL (≈ 0.412 µM). The MIC [3] was 0.78 µg/mL (≈ 1.61 µM), the MIC (Proteus vulgaris GN76) was 1.56 µg/mL (≈ 3.21 µM) and the MIC [4] was 6.25 µg/mL (≈ 12.9 µM). It also gave an MIC [5] of 0.39 µg/mL (≈ 0.803 µM), an MIC [6] of over 100 µg/mL and an MIC [7] of over 100 µg/mL. For the same compound, the MIC [8] was 0.78 µg/mL (≈ 1.61 µM), the MIC [9] was 6.25 µg/mL (≈ 12.9 µM) and the MIC (Escherichia coli 255) was 50 µg/mL (≈ 103 µM). For the same compound, the MIC (Escherichia coli 255/S-1) was 0.39 µg/mL (≈ 0.803 µM), the MIC [10] was 100 µg/mL (≈ 206 µM) and the MIC (Marganella morganii 1510) was 50 µg/mL (≈ 103 µM). The MIC [11] was 12.5 µg/mL (≈ 25.7 µM), the MIC [12] was 0.2 µg/mL (≈ 0.412 µM) and the MIC [13] was 6.25 µg/mL (≈ 12.9 µM). For the same compound, the MIC [14] was 0.2 µg/mL (≈ 0.412 µM), the MIC [15] was 1.56 µg/mL (≈ 3.21 µM) and the MIC [16] was 1.56 µg/mL (≈ 3.21 µM). For the same compound, the MIC [17] was over 100 µg/mL.

`CC1(C)OCCC(CSC2=C(C(=O)O)N3C(=O)C(NC(=O)/C(=N\O)c4csc(N)n4)[C@H]3SC2)O1` (some centres unmarked) [Compound No. 17, 7 - [(Z)-2-(2-aminothiazol-4-yl) -2-hydroxyiminoacetamido]-3-(2,2-dimethyl-1,3-dioxan-4-yl)methylthio-3-cephem-4-carboxylic acid] was tested, and the MIC (Escherichia coli GN206) was 25 µg/mL (≈ 47.2 µM), the MIC [1] was 12.5 µg/mL (≈ 23.6 µM) and the MIC [2] was 3.13 µg/mL (≈ 5.91 µM). The MIC [3] was 3.13 µg/mL (≈ 5.91 µM), the MIC (Proteus vulgaris GN76) was 3.13 µg/mL (≈ 5.91 µM) and the MIC [4] was 12.5 µg/mL (≈ 23.6 µM). It also gave an MIC [5] of 6.25 µg/mL (≈ 11.8 µM), an MIC [6] of over 100 µg/mL and an MIC [7] of over 100 µg/mL. It also gave an MIC [8] of 6.25 µg/mL (≈ 11.8 µM), an MIC [9] of 25 µg/mL (≈ 47.2 µM) and an MIC (Escherichia coli 255) of 100 µg/mL (≈ 189 µM). The MIC (Escherichia coli 255/S-1) was 6.25 µg/mL (≈ 11.8 µM), the MIC [10] was over 100 µg/mL and the MIC (Marganella morganii 1510) was over 100 µg/mL. The MIC [11] was 6.25 µg/mL (≈ 11.8 µM), the MIC [12] was 0.39 µg/mL (≈ 0.736 µM) and the MIC [13] was 25 µg/mL (≈ 47.2 µM). The MIC [14] was 0.78 µg/mL (≈ 1.47 µM), the MIC [15] was 12.5 µg/mL (≈ 23.6 µM) and the MIC [16] was 6.25 µg/mL (≈ 11.8 µM). It also gave an MIC [17] of over 100 µg/mL.

For `CO/N=C(\C(=O)NC1C(=O)N2C(C(=O)O)=C(SC3COCOC3)CSC12)c1csc(N)n1` (centres unmarked) [Compound No. 19], the MIC (Escherichia coli GN206) was 3.13 µg/mL (≈ 6.24 µM), the MIC [1] was 0.78 µg/mL (≈ 1.56 µM) and the MIC [2] was 0.1 µg/mL (≈ 0.199 µM). The MIC [3] was 0.2 µg/mL (≈ 0.399 µM), the MIC (Proteus vulgaris GN76) was 0.05 µg/mL (≈ 0.0997 µM) and the MIC [4] was 3.13 µg/mL (≈ 6.24 µM). It also gave an MIC [5] of under 0.025 µg/mL, an MIC [6] of over 100 µg/mL and an MIC [7] of over 100 µg/mL. The MIC [8] was 0.39 µg/mL (≈ 0.778 µM), the MIC [9] was 1.56 µg/mL (≈ 3.11 µM) and the MIC (Escherichia coli 255) was 25 µg/mL (≈ 49.8 µM). For the same compound, the MIC (Escherichia coli 255/S-1) was 0.39 µg/mL (≈ 0.778 µM), the MIC [10] was 50 µg/mL (≈ 99.7 µM) and the MIC (Marganella morganii 1510) was 12.5 µg/mL (≈ 24.9 µM). It also gave an MIC [11] of 0.78 µg/mL (≈ 1.56 µM), an MIC [12] of 0.78 µg/mL (≈ 1.56 µM) and an MIC [13] of 25 µg/mL (≈ 49.8 µM). It also gave an MIC [14] of 0.39 µg/mL (≈ 0.778 µM), an MIC [15] of 0.39 µg/mL (≈ 0.778 µM) and an MIC [16] of 100 µg/mL (≈ 199 µM). It also gave an MIC [17] of 50 µg/mL (≈ 99.7 µM).
